The source of these data is US7442794B2, “Rearranged pentanols, a process for their production and their use as anti-inflammatory agents” (Schering AG, priority 2003, dated 2008).

Series [1] concerns secretion of cytokine IL-8 in human monocyte cell line THP-1 triggered by lipopolysaccharide (LPS). Briefly: Inhibition of LPS-triggered secretion of cytokine IL-8 in THP-1 cells (ELISA). The series is classed as cell-based. As to conditions: LPS-triggered IL-8 secretion, THP-1, supernatant ELISA, read-out: inhibition IC50(IL8). The procedure: The concentration of the cytokines was determined in the supernatant by means of commercially available ELISA kits.

Series [2] concerns the target glucocorticoid receptor (GR) (Homo sapiens, UniProt P04150). The experiment in a line: biochemical. The source says:
The binding of the substances to the glucocorticoid receptor (GR) and other steroid hormone receptors (mineral corticoid receptor (MR), progesterone receptor (PR) and androgen receptor (AR)) is examined with the aid of recombinantly produced receptors. Cytosol preparations of Sf9 cells, which had been infected with recombinant baculoviruses, which code for the GR, are used for the binding studies.

Sequence of glucocorticoid receptor (GR) (P04150 whole entry, species assumed): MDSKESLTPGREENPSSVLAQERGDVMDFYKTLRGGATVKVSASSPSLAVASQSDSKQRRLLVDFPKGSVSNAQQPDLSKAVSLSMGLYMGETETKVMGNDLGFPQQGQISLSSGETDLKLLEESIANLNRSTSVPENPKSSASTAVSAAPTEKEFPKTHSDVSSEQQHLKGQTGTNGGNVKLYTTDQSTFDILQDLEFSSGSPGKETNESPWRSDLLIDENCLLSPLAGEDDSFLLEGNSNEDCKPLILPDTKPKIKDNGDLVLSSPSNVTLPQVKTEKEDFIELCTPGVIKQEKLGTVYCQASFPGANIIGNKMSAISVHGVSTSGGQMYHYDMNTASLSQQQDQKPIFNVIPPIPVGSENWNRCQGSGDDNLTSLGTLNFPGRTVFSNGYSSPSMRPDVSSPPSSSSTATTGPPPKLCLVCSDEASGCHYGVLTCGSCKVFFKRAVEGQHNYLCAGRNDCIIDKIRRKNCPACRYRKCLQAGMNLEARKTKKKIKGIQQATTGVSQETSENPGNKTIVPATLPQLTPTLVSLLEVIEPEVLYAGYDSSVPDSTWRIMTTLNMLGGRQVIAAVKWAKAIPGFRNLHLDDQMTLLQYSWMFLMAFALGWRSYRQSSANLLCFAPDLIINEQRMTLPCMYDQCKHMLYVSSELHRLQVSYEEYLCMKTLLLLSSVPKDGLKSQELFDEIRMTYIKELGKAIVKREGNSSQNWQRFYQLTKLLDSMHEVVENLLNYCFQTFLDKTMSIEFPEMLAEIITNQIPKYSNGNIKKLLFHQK

Take `C=C(C)CC(O)(C(Nc1cccc2c(=O)[nH]ccc12)c1cc(Br)ccc1O)C(F)(F)F` (stereo not drawn) [Example 3, 5-{[1-(5-Bromo-2-hydroxyphenyl)-2-hydroxy-4-methyl-2-(trifluoromethyl)-pent-4-en-1-yl]amino}-isoquinolin-1(2H)-one]: the values for the IC50 in series [1] and in series [2] were 25 nM and 64 nM, respectively.

`C=C(C)CC(O)(C(Nc1ccc(F)c2nc(C)ncc12)c1ccc(Cl)cc1OC)C(F)(F)F` (racemic) [Example 7, 2-{4-Chloro-alpha-[(8-fluoro-2-methylquinazolin-5-yl)amino]-2-methoxybenzyl}-1,1,1-trifluoro-4-methylpent-4-en-2-ol] returned a melting point of 72 to 73 °C.
